Biological target: T1, OsLecRK1 (MBP-OsLecRK1-His) (Oryza sativa, UniProt Q7FAZ3)
T1 construct: gene LECRK1; recombinant MBP-OsLecRK1-His fusion, purified; MBP and His tags kept; RED-NHS labelled
T1 sequence (Q7FAZ3 20-813 limits assumed): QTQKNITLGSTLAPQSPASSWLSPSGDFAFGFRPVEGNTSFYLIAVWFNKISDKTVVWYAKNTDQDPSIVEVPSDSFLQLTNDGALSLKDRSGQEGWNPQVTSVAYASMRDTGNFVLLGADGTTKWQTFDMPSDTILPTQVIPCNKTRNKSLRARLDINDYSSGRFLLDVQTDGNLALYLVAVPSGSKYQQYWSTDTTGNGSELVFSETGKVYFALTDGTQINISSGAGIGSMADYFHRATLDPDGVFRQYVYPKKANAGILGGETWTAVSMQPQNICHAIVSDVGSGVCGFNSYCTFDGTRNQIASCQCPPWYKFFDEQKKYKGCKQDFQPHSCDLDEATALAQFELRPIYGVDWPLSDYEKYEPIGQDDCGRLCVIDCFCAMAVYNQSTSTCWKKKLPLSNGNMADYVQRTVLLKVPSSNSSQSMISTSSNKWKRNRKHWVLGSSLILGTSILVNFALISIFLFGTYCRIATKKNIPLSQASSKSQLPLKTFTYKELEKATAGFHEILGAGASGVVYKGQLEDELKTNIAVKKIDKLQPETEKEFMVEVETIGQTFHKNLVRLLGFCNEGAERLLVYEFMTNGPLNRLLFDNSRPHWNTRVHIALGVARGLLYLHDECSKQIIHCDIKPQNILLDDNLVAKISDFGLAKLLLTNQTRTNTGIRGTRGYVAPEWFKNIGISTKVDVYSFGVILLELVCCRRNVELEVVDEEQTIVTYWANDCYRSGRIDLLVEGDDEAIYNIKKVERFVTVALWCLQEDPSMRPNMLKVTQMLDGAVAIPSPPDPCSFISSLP
Test: microscale thermophoresis, RED-NHS labelled protein
Assay type: binding
Conditions: labelled protein in NHS buffer pH 8.2 (130 mM NaHCO3, 50 mM NaCl); ligand 1.5 nM to 50 μM
Description: microscale thermophoresis, RED-NHS labelled protein on OsLecRK1 (MBP-OsLecRK1-His) | MBP‐OsLecRK1‐His recombinant protein bound BGTRIA, BGTRIB, BGTETB, and BGTETC with high affinities

Row | Kd | SMILES
1 | 340 nM | OC[C@H]1O[C@@H](O[C@@H]2[C@@H](O)[C@H](O[C@H]3[C@H](O)[C@@H](O)C(O)O[C@@H]3CO)O[C@H](CO)[C@H]2O)[C@H](O)[C@@H](O)[C@@H]1O (stereo partly drawn) [BGTRIA, 3^2‐β‐D‐glucosyl‐cellobiose]
2 | 600 nM | OC[C@H]1O[C@@H](O[C@H]2[C@H](O)[C@@H](O)[C@H](O[C@H]3[C@H](O)[C@@H](CO)OC(O)[C@@H]3O)O[C@@H]2CO)[C@H](O)[C@@H](O)[C@@H]1O (stereo partly drawn) [BGTRIB, 3^1‐β‐D‐cellobiosyl‐glucose]

From publication PMC10214751, “Poaceae‐specific β‐1,3;1,4‐D‐glucans link jasmonate signalling to OsLecRK1‐mediated defence response during rice‐brown planthopper interactions” (Plant Biotechnology Journal, 2023)
